Measured values taken from patent US9050315B2, “In vivo and ex vivo expansion of hematopoietic stem cells with a targeted combination of clinically tested, FDA approved drugs” (The Trustees of the University of Pennsylvania, priority 2010, dated 2015).
Entries after “also recorded” stand apart in the source; their conditions may differ.

How the values were obtained:
c-Kit+ cells = assay: Colony formation assay in methylcellulose with hematopoietic cytokines; type: cell-based, mice; settings: c-Kit+ cells treated 3 days ex vivo, then methylcellulose 10-14 days
Method: The primary cultures are shown.
Methylcellulose culture: Sorted GFP^+ BM cells were plated in individual wells of 6-well plates (Corning) containing 550 μl 1.0% methylcellulose (Stem Cell Technologies) as previously described (Trowbridge, et al., 2006, Nature. 441:518-522). The methylcellulose was supplemented with 1% penicillin/streptomycin (Gibco; Invitrogen), 50 ng/ml SCF, 10 ng/ml IL-3, 10 ng/ml IL-6, and 3 U/ml erythropoietin. Colonies were incubated at 37° C. in humidified incubators at 5% CO2. Colony formation was scored by counting all colonies of greater than 30 viable cells after 10-14 days of culture.
To test whether progenitor cells are increased by lithium treatment, colony formation assays were performed. […] To confirm these studies, bone marrow cells were isolated from lithium treated mice and cultured in methylcellulose with hematopoietic cytokines.

LSK cells = settings: cited from earlier work

SMILES	hematopoietic colony number (c-Kit+ cells)	overall marrow cellularity (LSK cells (HSCs/HPCs); mice treated 2 weeks, vs control)	number of LSK cells in bone marrow (LSK cells (HSCs/HPCs); mice treated 2 weeks, vs control (NaCl for lithium), FCM)	bone marrow morphology / architecture (LSK cells (HSCs/HPCs); treated versus control marrows)	HSCs measured by long-term competitive repopulation assay (LSK cells; mice, Goessling et al. 2009)	increase in LSK cells (LSK cells; treated mice, Trowbridge et al. 2006)
O=C1Nc2cc(Br)ccc2/C1=C1/Nc2ccccc2/C1=N\O [6BIO, 6-bromo-indirubin 3′-oxime]	marked increase; also recorded: increased	increased marrow cellularity; also recorded: parallel increase	pronounced increase; also recorded: increased	no observable change	increases HSCs	–
COc1ccc(CNC(=O)Nc2ncc([N+](=O)[O-])s2)cc1 [AR-A014418]	marked increase; also recorded: increased	–	–	–	–	–
Cc1c[nH]c(-c2cnc(NCCNc3ccc(C#N)cn3)nc2-c2ccc(Cl)cc2Cl)n1 [CHIR-911]	–	–	–	–	–	approximately 50%
